Patent US20220409657A1, “INSTRUCTIONS FOR COMPOSITION AND SENSITIVITY” (Azura Ophthalmics Ltd., priority 2020, published 2022)
Like-named read-outs stand apart in the source and are kept apart here.

Experiments:
[1] = test system: meibomian gland disorder (MGD) patients; details: twice a week, 3 month time point
Procedure: The drug was applied twice a week and final evaluation was done at the 3 month time point in which the primary outcome of Meibomian Gland Score (MGS) was assessed.

[2] = test system: human subjects; details: in vivo
Excerpt: An additional 2 or 3 additional cases of adverse effects. Of these subjects, 2 had keratitis following the 1st in-office application and another patient deteriorate following the 2nd in-office application although the subject kept on another dose or two at home before coming with pain to be examined (a typical scenario when keratitis evolves).

[3] = test system: human subject
Procedure: In most instances, the treatment is applied on a biweekly basis, however some patients move to daily application based on prespecified protocol criteria. Because the ointment-based composition is known to mix with tear fluid and cause blurry vision, individuals in this study are advised to apply the treatment prior to bed so as to avoid risks associated with reduced vision acuity. […] The in-office applications are conducted at specific, pre-determined time points. In these instances, the treatment is not applied before bed but rather is performed during daylight hours.

[4] = in vivo; cited from earlier work
[5] = test system: seborrheic blepharitis; details: cited from earlier work
[6] = test system: human subjects
Excerpt: In a clinical study three different concentrations were used; 0.1 wt. %, (10 subjects) 0.5 wt. % (12 subjects) and 1 wt. % (26 subjects).

[7] = test system: study patients; details: in vivo
Procedure: In a first study patients were instructed to dose in both the evening, between visits, and in the daytime during regular scheduled clinic visits as part of the study protocol. Study patients received a 2-week run-in on a placebo which was administered twice weekly for a period of two weeks.
Adverse events comprise a feeling of grittiness, foreign body feeling, stinging, blurry vision, redness, tired eyes, water eyes, irritation, lid abnormalities, burning, corneal abrasion, photophobia, staining, or dry eye disorder (DED).

[8] = test system: animals; details: in vivo; cited from earlier work
[9] = test system: rabbits; details: dose about 4 mg, concentration up to 2.5 wt. %, ointment over the eyelid margin

Which “average change from baseline in Meibomian Gland Score (MGS)” value ([1]; 9 patients using finger) does the source give for selenium disulfide [SeS2] here?
Its value is 10 (+/− 8.2).

And the “average change from baseline in Meibomian Gland Score (MGS)” value ([1]; 13 patients using applicator)?
Its value is 2.3 (+/− 4.4).

What about the “additional cases of adverse effects” value [2] of the same substance?
Its value is 2-3 cases.

What about the “subjects with keratitis following the 1st in-office application” value [2] of the same substance?
Its value is 2 subjects.

And the keratitis ([3]; 0.1 wt. % concentration)?
The keratitis was “Keratitis is not observed”.

What about the keratitis ([3]; 0.5 wt. % concentration) of the same substance?
The keratitis was “Keratitis is not observed”.

What about the “patients noting symptoms of keratitis” value ([3]; 1 wt. % cohort, following in-office assessment) of the same substance?
Its value is “four”.

What about the “bedtime applications resulting in keratitis” value ([3]; 400 or more bedtime applications) of the same substance?
The value was “none”.

What about the “health outcomes by OSDI, VAS and SPEED” value ([3]; at least one patient, one month of treatment, 1 wt. %) of the same substance?
The value was “improved health outcomes”.

What about the “time from in-office assessment to significant pain near the treated area” value ([3]; one patient, 1 wt. %) of the same substance?
The value was at most 7 h.

And the contact dermatitis [4]?
Its contact dermatitis is “can produce contact dermatitis”.

What about the “contact or photo-contact dermatitis in tinea versicolor treatment” value [4] of the same substance?
The value was “None of the investigators encountered a single case”.

What about the “hair loss after shampooing” value [4] of the same substance?
The value was “diffuse hair loss”.

And the “skin reaction after shampoo applied three consecutive nights” value [4]?
Its value is “developed circumscribed eczematous plaques”.

What about the “treatment of seborrheic blepharitis” value ([5]; SeS2 0.5%) of the same substance?
Its value is “effective”.

What about the “adverse events following topical ocular use” value ([5]; human, in vivo) of the same substance?
Its value is “superficial punctate keratitis and conjunctivitis”.

And the “adverse events during the first month” value ([6]; human, in vivo)?
The value was “no adverse events”.

And the “initiation of pain after the application” value ([6]; human, in vivo)?
The value was 6 to 20 h.

And the “keratitis after in-office, daytime applications” value ([6]; human, in vivo)?
Its value is “no development of keratitis”.

What about the “keratitis in bedtime applications” value ([6]; human, in vivo) of the same substance?
The value was “without a single occurrence of keratitis”.

What about the “subjects who developed keratitis or keratitis related symptoms” value ([6]; human, in vivo) of the same substance?
The value was “four”.

And the “time from in-office morning application to significant pain” value ([6]; human, in vivo)?
The value was “About 7 hours”.

What about the “total OSDI, VAS and SPEED” value ([6]; one patient, 1 wt. %, first month, twice weekly at home before bedtime) of the same substance?
Its value is “significant improvement”.

What about the “reduction in the incidence of ocular adverse events” value [7] of the same substance?
Its value is 75%.

What about the “reduction of discontinuations from adverse events (DC for AE)” value [7] of the same substance?
The value was “at least 50%”.

What about the “reduction of rates of ocular adverse events (ocular AE)” value [7] of the same substance?
The value was “at least 50%”.

What about the “safe concentration for use in humans” value [8] of the same substance?
The value was 0.5%.

And the tolerability [9]?
The tolerability was “well tolerated”.
